# Data published in patent publication US20090092975A1, “SELECTABLE MARKER” (Mologic Ltd, priority 2005, published 2009).
# Tested on: Saccharomyces cerevisiae strain 62 expressing PAD1
# Type: cell-based
# Conditions: predicted decarboxylation product in headspace; weak acid 0.5 mM, YEPD pH 4, 10 h at 28° C.; 0 = no decarboxylation
# Experimental: S. cerevisiae strain 62 (which expresses the PAD1 gene) was cultured for 48 hr in YEPD pH 4, Yeast extract 10 g, Peptone 20 g, Glucose 20 g, at 28° C. in a shake flask, 120 rpm. The stationary-phase cells were inoculated into capped 28 ml McCartney bottles containing 10 mls YEPD pH 4, at 1 million cells per ml. Each bottle also contained one of 70 substrate weak acids at 0.5 mM. Tubes were then shaken for 10 h at 28° C.
# 1 ml samples of the headspace were passed into stainless-steel thermal desorption tubes, followed by a 10 ml air flush. (Desorption tubes—89 mm×5 mm ID, packed with 200 mg Tenax TA 60-80 mesh, Phase Separations, UK).
# Thermal desorption tubes were placed in a Perkin Elmer ATD400 thermal desorption system, and the volatiles transferred to the Gas Chromatograph in a 2 stage process. Primary desorption was 250° C. for 10 min with a helium flow of […]. Using a split ratio of 1:1, volatiles were retained on a cold trap (25 mg Tenax TA) held at −30° C. Secondary desorption was carried out by rapidly heating and holding the cold trap at 250° C. for 2 min, with a helium flow of 20 ml/min and split ratio of 19:1. A DB624 column {30 m×0.32 mm, 1.8 microns film thickness} installed in a Carbo Erba GC800 was used to achieve separation and introduction of the volatile to the mass spectrometer. The column temperature was held at 40° C. for 2 min then increased at 5° C./min to 250° C. The column outlet was coupled via a heated transfer line at 250° C. into the ion source of the mass spectrometer operated at 70 eV in electron ionization (EI) mode. The source temperature was at 200° C. and the detector photomultiplier at 500V. Full scan MS data acquisition was carried out from m/z 30 to 300, with 0.6 sec scan and 0.05 sec inter scan delay.
# The results are shown in Table 3, in each case the “predicted product” being the product which would be produced if decarboxylation of the weak acid were to take place.
row,Compound,GCMS Peak area
1,O=C(O)/C=C/c1ccc(O)cc1 [Coumaric acid],0
2,Cc1cccc(C=CC(=O)O)c1 [3-Methyl-cinnamic acid],8195
3,O=C(O)C=Cc1cccc(Br)c1 [3-Bromo-cinnamic acid],248
4,COc1ccccc1C=CC(=O)O [2-Methoxy-cinnamic acid],128
5,O=C(O)C=Cc1ccc([N+](=O)[O-])cc1 [4-Nitro-cinnamic acid],0
6,O=C(O)C=Cc1ccc(Cl)cc1 [4-Choro-cinnamic acid],12391
7,O=C(O)C=Cc1c[nH]c2ccccc12 [Indole-acrylic acid],0
8,O=C(O)C=Cc1ccc(C=CC(=O)O)cc1 [3-[4-(2-Carboxy-vinyl)-phenyl]-acrylic acid],0
9,CCCCCC(=O)O [Hexanoic acid],0
10,CN(C)c1ccc(C=CC(=O)O)cc1 [4-Dimethylamino-cinnamic acid],0
11,O=C(O)C=Cc1ccccc1Br [2-Bromo-cinnamic acid],2912
12,O=C(O)C(=Cc1ccccc1)c1ccccc1 [alpha-phenyl-cinnamic acid],0
13,O=C(O)C=Cc1ccccc1Cl [2-Chloro-cinnamic acid],4911
14,O=C(O)c1ccccc1 [Benzoic acid],0
15,O=C(O)C=Cc1ccccc1 [Cinnamic acid],17538
16,O=C(O)/C=C/c1c[nH]cn1 [Urocanic acid],0
17,CCCCC(=O)O [Valeric acid],0
18,O=C(O)C=Cc1ccccc1[N+](=O)[O-] [2-Nitro-cinnamic acid],0
19,CCOc1ccccc1C=CC(=O)O [2-Ethoxycinnamic acid],193
20,O=C(O)C=Cc1ccccc1F [2-Fluoro-cinnamic acid],3760

row,Compound,GCMS Peak area
1,"O=C(O)/C=C/c1ccc(Cl)cc1Cl [trans-2,4-Dichloro-cinnamic acid]",4428
2,O=C(O)CCc1ccccc1 [Hydrocinnamic acid],0
3,"O=C(O)C=Cc1ccc(F)cc1F [2,4-Difluoro-cinnamic acid]",35698
4,O=C(O)C=Cc1cccc([N+](=O)[O-])c1 [3-Nitro-cinnamic acid],0
5,OCC=Cc1ccccc1 [Cinnamyl alcohol],0
6,"COc1ccc(C=CC(=O)O)c(OC)c1OC [2,3,4-Trimethoxy-cinnamic acid]",0
7,O=C(O)C=Cc1cccc(Cl)c1 [3-Choro-cinnamic acid],907
8,O=C(O)C=Cc1ccccc1C(=O)O [2-Carboxy-cinnamic acid],0
9,"COc1ccc(C=CC(=O)O)c(OC)c1 [2,4-Dimethoxy-cinnamic acid]",30
10,COc1cccc(C=CC(=O)O)c1 [3-Methoxy-cinnamic acid],178
11,COc1ccc(C=CC(=O)O)cc1 [4-Methoxy-cinnamic acid],1899
12,O=C(O)C=Cc1ccco1 [Furylacrylic acid],15611
13,O=C(O)C=Cc1ccc(Br)cc1 [4-Bromo-cinnamic acid],1038
14,O=C(O)C=Cc1ccc(C(F)(F)F)cc1 [4-Trifluoromethyl-cinnamic acid],1600
15,CCOc1ccc(C=CC(=O)O)cc1 [4-Ethoxycinnamic acid],227
16,O=C(O)C=Cc1ccccc1C(F)(F)F [2-Trifluoromethyl-cinnamic acid],1440
17,O=C(O)C=Cc1cccc(C(F)(F)F)c1 [3-Trifluoromethyl-cinnamic acid],946
18,O=Cc1ccc(C=CC(=O)O)cc1 [4-Formyl-cinnamic acid],0
19,"O=C(O)C=Cc1ccc(F)c(F)c1F [2,3,4-Trifluoro-cinnamic acid]",0

# Tested on: not given
# Conditions: Table 1, monocarboxylic weak acids; cited from earlier work
row,Compound,Pka
1,O=C(O)c1ccccc1Cl [2-Chlorobenzoic acid],2.89
2,C#CC(=O)O [Propiolic acid],2.39
3,C/C=C/CC(=O)O [trans-3-Pentenoic acid],4.36
4,COc1cccc(C(=O)O)c1 [m-Anisic acid],4.09
5,"CCC(C)(C)C(=O)O [2,2-Dimethylbutyric acid]",5.03
6,CC1(C(=O)O)CC1 [1-Methyl-cyclopropane carboxylic acid],5.1
7,CC1CC1C(=O)O (centres unmarked) [2-Methyl-cyclopropane carboxylic acid],4.8
8,CC(C(=O)O)c1ccccc1 (centres unmarked) [2-Phenylpropionic acid],4.0606
9,O=C(O)CC1C=CCC1 (centres unmarked) [2-Cyclopentene-1-acetic acid],4.61
10,CCC(C)CC(=O)O (centres unmarked) [3-Methylvaleric acid],4.7868
11,Cc1ccccc1C(=O)O [o-Toluic acid],3.98
12,O=C(O)CC1CCCC1 [Cyclopentylacetic acid],4.76
13,O=C(O)C1CCCCCC1 [Cycloheptanecarboxylic acid],4.9518
14,O=C(O)c1ccsc1 [Thiophene-3-carboxylic acid],4.08
15,CCCC=CCC(=O)O [3-Heptenoic acid],4.7696
16,O=C(O)CCCc1ccccc1 [4-Phenylbutyric acid],4.76
17,O=C(O)Cc1ccccc1 [Phenylacetic acid],4.31
18,O=C(O)C1=CCCC1 [1-Cyclopentene-1-carboxylic acid],3.7528
19,C#CCCC(=O)O [4-Pentynoic acid],4.1342

row,Compound,Pka
1,O=C(O)c1ccco1 [2-Furoic acid],3.13
2,O=C(O)CC1CC1 [Cyclopropylacetic acid],4.8873
3,"CC(C)(C)CC(=O)O [3,3-Dimethylbutyric acid]",4.961
4,CCCCC=CCC(=O)O [3-Octenoic acid],4.7926
5,CCCCCCCCCCC(=O)O [Undecanoic acid],5.03
6,O=C(O)COc1ccccc1 [Phenoxyacetic acid],3.17
7,C=CCCCCC(=O)O [6-Heptenoic acid],4.81
8,O=C(O)CC1CCCCC1 [Cyclohexylacetic acid],4.8806
9,O=C(O)c1ccccc1[N+](=O)[O-] [2-Nitrobenzoic acid],2.47
10,C=CCCC(=O)O [4-Pentenoic acid],4.6364
11,C=C(C)C(=O)O [Methacrylic acid],4.61
12,O=C(O)c1cccc([N+](=O)[O-])c1 [3-Nitrobenzoic acid],3.46
13,CC(C)=CCC[C@@H](C)CC(=O)O [(R)(+)Citronellic acid],4.752
14,"O=C(O)C1(C(=O)O)CC1 [1,1-Cyclopropanedicarboxylic acid]",3.114
15,C#CCCCCC(=O)O [6-Heptynoic acid],4.71
16,C=C(Cl)C(=O)O [2-Chloroacrylic acid],2.6975
17,COc1cc(C(=O)O)ccc1O [Vanillic acid],4.51
18,O=C(O)C1CC=CCC1 (centres unmarked) [3-Cyclohexene-1-carboxylic acid],4.593
19,O=C(O)CC1CCCCCC1 [Cycloheptylacetic acid],4.822

row,Compound,Pka
1,CC(C)c1ccc(C(=O)O)cc1 [Cumic acid],4.35
2,O=C(O)C1CCCC1 [Cyclopentanecarboxylic acid],4.8
3,C=CCC(=O)O [Vinylacetic acid],4.51
4,O=C(O)CCC1CCCC1 [3-Cyclopentylpropionic acid],4.81
5,CC(C)CCC(=O)O [4-Methylvaleric acid],4.8689
6,CC#CC(=O)O [2-Butynoic acid],2.6546
7,CC(Cl)C(=O)O (centres unmarked) [2-Chloropropionic acid],2.897
8,O=C(O)c1cccc(Cl)c1 [3-Chlorobenzoic acid],3.81
9,CCCC(C)C(=O)O (centres unmarked) [2-Methylvaleric acid],4.79
10,C/C=C(\C)C(=O)O [Tiglic acid],4.4564
11,O=C(O)CCCl [3-Chloropropionic acid],3.8924
12,CCc1ccc(C(=O)O)cc1 [4-Ethylbenzoic acid],4.35
13,CCCCCCC=CCC(=O)O [3-Decenoic acid],4.728
14,O=C(O)CCCC1CCCCC1 [Cyclohexanebutyric acid],4.9061
15,O=C(O)C1=CCCCC1 [1-Cyclohexene-1-carboxylic acid],3.7528
16,O=C(O)/C=C/Cl [trans-3-Chloroacrylic acid],3.2506
17,O=C(O)/C=C\Cl [cis-3-Chloroacrylic acid],3.2506
18,CCC(CC)C(=O)O [2-Ethylbutyric acid],4.71
